Data as given in US12084472B2 (Ardelyx, Inc., priority 2015, dated 2024).

Target: T1, human TGR5 (Homo sapiens, UniProt Q8TDU6)
T1 construct: expressed in transfected cells; host or cells: HEK293
T1 sequence (Q8TDU6 1-330): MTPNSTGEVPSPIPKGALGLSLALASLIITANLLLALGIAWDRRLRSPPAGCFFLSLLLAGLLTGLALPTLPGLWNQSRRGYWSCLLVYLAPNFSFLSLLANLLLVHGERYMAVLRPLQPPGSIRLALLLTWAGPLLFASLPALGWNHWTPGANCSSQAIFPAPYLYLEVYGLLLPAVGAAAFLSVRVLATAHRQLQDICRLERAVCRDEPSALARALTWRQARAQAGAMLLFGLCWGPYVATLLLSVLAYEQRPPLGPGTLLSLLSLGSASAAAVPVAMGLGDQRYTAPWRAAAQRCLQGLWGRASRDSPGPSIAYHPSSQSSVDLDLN
Test: Cell-based TGR5 assay (cAMP generation, HTRF)
Details: HEK293 cells stably transfected with human TGR5; cAMP by HTRF; 30 minutes at 37° C.; read-out: pEC50 Human TGR5 (converted)
Summary of the method: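 First, compounds in 3-fold serial dilution were placed in HBSS with 10 mM HEPES pH 7.4 and 0.5 mM IBMX. Next, human TGR5-expressing HEK293 cells were added and incubated 30 min at 37° C. Finally, cAMP was detected by HTRF and pEC50 derived by logistic fitting.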

SMILES	EC50 [nM]
O=C(CCC1CCN(S(=O)(=O)c2ccc(Cl)c(COC3(c4cnccc4-c4ccccc4OC4CC4)CC3)c2)C1)NC[C@H](O)[C@@H](O)[C@H](O)[C@H](O)CO (stereo partly drawn) [Compound I-451, 3-{1-[4-chloro-3-({-[4-(2-cyclopropoxyphenyl)pyridin-3-yl]cyclopropoxy}methyl)benzenesulfonyl]pyrrolidin-3-yl}-N-[(2S,3R,4R,5R)-2,3,4,5,6-pentahydroxyhexyl]propanamide]	< 100
CC(CCCC(=O)N1CCC(NC(=O)NC[C@H](O)[C@@H](O)[C@H](O)[C@H](O)CO)CC1)c1ccc(Cl)c(CNC2(c3cnccc3-c3ccccc3OC3CC3)CC2)c1 (stereo partly drawn) [Compound I-320, 1-[1-(5-{4-chloro-3-[({1-[4-(2-cyclopropoxyphenyl)pyridin-3-yl]cyclopropyl}amino)methyl]phenyl}hexanoyl)piperidin-4-yl]-3-[(2S,3R,4R,5R)-2,3,4,5,6-pentahydroxyhexyl]urea]	< 100
Cc1ccc(C(C)CCCC(=O)O)cc1CNC1(c2cnccc2-c2ccccc2OC2CC2)CC1 (single isomer, unassigned) [Compound I-253]	< 100
O=C(CCCCc1cc(Cl)c(COC2(c3cnccc3-c3ccccc3OC3CC3)CC2)cc1Cl)N(CCO)C[C@H](O)[C@@H](O)[C@H](O)[C@H](O)CO [Compound I-105, 5-[2,5-dichloro-4-({1-[4-(2-cyclopropoxyphenyl)pyridin-3-yl]cyclopropoxy}methyl)phenyl]-N-(2-hydroxyethyl)-N-[(2S,3R,4R,5R)-2,3,4,5,6-pentahydroxyhexyl]pentanamide]	< 100
CC(CCCC(=O)N1CCN(CCNC(=O)NC[C@H](O)[C@@H](O)[C@H](O)[C@H](O)CO)CC1)c1ccc(Cl)c(CNC2(c3cnccc3-c3ccccc3OC3CC3)CC2)c1 (stereo partly drawn) [Compound I-323, 1-{2-[4-(5-{4-chloro-3-[({1-[4-(2-cyclopropoxyphenyl)pyridin-3-yl]cyclopropyl}amino)methyl]phenyl}hexanoyl)piperazin-1-yl]ethyl}-3-[(2S,3R,4R,5R)-2,3,4,5,6-pentahydroxyhexyl]urea]	< 100
C[C@H](CCCCNC(=O)NC[C@H](O)[C@@H](O)[C@H](O)[C@H](O)CO)c1ccc(Cl)c(COC2(c3cnccc3-c3ccccc3OC3CC3)CC2)c1 (single isomer, unassigned) [Compound I-273]	< 100
Cc1ccc(C(C)CCCC(=O)N2CCN(CC(=O)NC[C@H](O)[C@@H](O)[C@H](O)[C@H](O)CO)CC2)cc1CNC1(c2cnccc2-c2ccccc2OC2CC2)CC1 (stereo partly drawn) [Compound I-371, 2-[4-(5-{3-[({1-[4-(2-cyclopropoxyphenyl)pyridin-3-yl]cyclopropyl}amino)methyl]-4-methylphenyl}hexanoyl)piperazin-1-yl]-N-[(2S,3R,4R,5R)-2,3,4,5,6-pentahydroxyhexyl]acetamide]	< 100
C[C@@H](CCCCC(=O)N(C)C[C@H](O)[C@@H](O)[C@H](O)[C@H](O)CO)c1ccc(Cl)c(CNC2(c3cnccc3-c3ccccc3OC3CC3)CC2)c1 (single isomer, unassigned) [Compound I-328]	< 100
CSc1ccc(Cl)c(COC2(c3cnccc3-c3ccccc3OC3CC3)CC2)c1 [Compound I-617, 3-(1-{[2-chloro-5-(methylsulfanyl)phenyl]methoxy}cyclopropyl)-4-(2-cyclopropoxyphenyl) pyridine]	< 100
Clc1ccc(Cl)c(CNC2(c3cnccc3-c3ccccc3OC3CCOC3)CC2)c1 (stereo not drawn) [Compound I-21, N-[(2,5-dichlorophenyl)methyl]-1-{4-[2-(oxolan-3-yloxy)phenyl]pyridin-3-yl}cyclopropan-1-amine]	126 to 1000

Continued, values first:

EC50 [nM]	SMILES
126 to 1000	Cc1ccc(SCCCCN(CCCCO)C(=O)[C@@H](O)[C@@H](O)[C@H](O)[C@@H](O)CO)cc1CNC1(c2cnccc2-c2ccccc2OC2CC2)CC1 [Compound I-550, (2S,3S,4R,5S)-N-[4-({3-[({1-[4-(2-cyclopropoxyphenyl)pyridin-3-yl]cyclopropyl}amino)methyl]-4-methylphenyl}sulfanyl)butyl]-2,3,4,5,6-pentahydroxy-N-(4-hydroxybutyl)hexanamide]
126 to 1000	Cc1ccc(SCCCN(CCCS(C)(=O)=O)C(=O)[C@@H](O)[C@@H](O)[C@H](O)[C@@H](O)CO)cc1CNC1(c2cnccc2-c2ccccc2OC2CC2)CC1 [Compound I-544, (2S,3S,4R,5S)-N-[3-({3-[({1-[4-(2-cyclopropoxyphenyl)pyridin-3-yl]cyclopropyl}amino)methyl]-4-methylphenyl}sulfanyl)propyl]-2,3,4,5,6-pentahydroxy-N-(3-methanesulfonylpropyl) hexanamide]
126 to 1000	O=C1CCCN1CCCN(CCCSc1ccc(Cl)c(COC2(c3cnccc3-c3ccccc3OC3CC3)CC2)c1)C(=O)[C@@H](O)[C@@H](O)[C@H](O)[C@@H](O)CO [Compound I-520, (2S,3S,4R,5S)-N-(3-{[4-chloro-3-({1-[4-(2-cyclopropoxyphenyl)pyridin-3-yl]cyclopropoxy}methyl)phenyl]sulfanyl}propyl)-2,3,4,5,6-pentahydroxy-N-[3-(2-oxopyrrolidin-1-yl)propyl]hexanamide]
126 to 1000	O=C([C@@H](O)[C@@H](O)[C@H](O)[C@@H](O)CO)N(CCCSc1ccc(Cl)c(COC2(c3cnccc3-c3ccccc3OC3CC3)CC2)c1)CCN1CCS(=O)(=O)CC1 [Compound I-521, (2S,3S,4R,5S)-N-(3-{[4-chloro-3-({1-[4-(2-cyclopropoxyphenyl)pyridin-3-yl]cyclopropoxy}methyl)phenyl]sulfanyl}propyl)-N-[2-(1,1-dioxo-1λ^6,4-thiomorpholin-4-yl)ethyl]-2,3,4,5,6-pentahydroxyhexanamide]
< 100	CC(=O)N(CCCCCSc1ccc(Cl)c(COC2(c3cnccc3-c3ccccc3OC3CC3)CC2)c1)C[C@H](O)[C@@H](O)[C@H](O)[C@H](O)CO [Compound I-695, N-(5-{[4-chloro-3-({1-[4-(2-cyclopropoxyphenyl)pyridin-3-yl]cyclopropoxy}methyl)phenyl]sulfanyl}pentyl)-N-[(2S,3R,4R,5R)-2,3,4,5,6-pentahydroxyhexyl]acetamide]
< 100	CCN(C[C@H](O)[C@@H](O)[C@H](O)[C@H](O)CO)C(=O)CCCSc1ccc(Cl)c(COC2(c3cnccc3-c3ccccc3OC3CC3)CC2)c1 [Compound I-659, 4-{[4-chloro-3-({1-[4-(2-cyclopropoxyphenyl)pyridin-3-yl]cyclopropoxy}methyl)phenyl]sulfanyl}-N-ethyl-N-[(2S,3R,4R,5R)-2,3,4,5,6-pentahydroxyhexyl]butanamide]
< 100	CC(=O)NCCN(CCCCSc1ccc(Cl)c(COC2(c3cnccc3-c3ccccc3OC3CC3)CC2)c1)C(=O)[C@@H](O)[C@@H](O)[C@H](O)[C@@H](O)CO [Compound I-564, (2S,3S,4R,5S)-N-(4-{[4-chloro-3-({1-[4-(2-cyclopropoxyphenyl)pyridin-3-yl]cyclopropoxy}methyl)phenyl]sulfanyl}butyl)-N-(2-acetamidoethyl)-2,3,4,5,6-pentahydroxyhexanamide]
126 to 1000	CC(=O)N(CCSc1ccc(Cl)c(CNC2(c3cnccc3-c3ccccc3OC3CC3)CC2)c1)C[C@H](O)[C@@H](O)[C@H](O)[C@H](O)CO [Compound I-504, N-[2-({4-chloro-3-[({1-[4-(2-cyclopropoxyphenyl)pyridin-3-yl]cyclopropyl}amino)methyl]phenyl}sulfanyl)ethyl]-N-[(2S,3R,4R,5R)-2,3,4,5,6-pentahydroxyhexyl]acetamide]
